From patent US12590070B2, “Adamantane derivatives as inhibitors of focal adhesion kinase” (SAMJIN PHARMACEUTICAL CO., LTD., priority 2019, dated 2026)

Key:
FAK [1] = biological target: T1, FAK (Homo sapiens, UniProt Q05397); assay: FAK [pY397] ELISA in MDA-MB-231 cells; assay type: cell-based; set-up: endogenous in cells; host or cells: MDA-MB-231; settings: MDA-MB-231, treated for one hour, Table 2; read-out: FAK inhibitory activity (IC50)
Method: (§1) Briefly, an enzyme-linked immunosorbent assay test was performed according to the manufacturer's instructions by using the FAK (Phospho) [pY397] Human ELISA Kit (Thermo Fisher Scientific, KH00441) after dispensing 1×10^6 MDA-MB-231 cells into each well of a 6-well plate, inducing cell stabilization for 24 hours, and treating each compound at different concentrations (o, 1, 5, 10, 50, 100, 500, 1000 nM) for one hour.

InsR = biological target: T2, InsR (Homo sapiens, UniProt P06213); assay: ADP-Glo Kinase Assay, InsR; assay type: biochemical; settings: ADP-Glo Kinase Assay Kit
T2 construct: purchased Promega V9401
Method: (§2) Briefly, a kinase test was performed and quantified according to the manufacturer's instructions after treating the adamantane derivative compound of the present invention by using the ADP-Glo™ Kinase Assay Kit (FAK, Promega, V1971; Pyk2, Promega, V4083; InsR, Promega, V9401) containing each kinase of Promega.

MDA-MB-231 cells [2] = assay: 3D invasion assay; assay type: cell-based, human; settings: MDA-MB-231 spheroids, 1, 5 μM, 72 hours, FIGS. 2 and 3
Method: A cell invasion assay was performed and quantified according to a 3D invasion assay. Briefly, MDA-MB-231 cells were cultured in a 96-well round plate (5×10^3/well) for three days to form cancer cell spheroids, then fixed in a mixture of semi-solid Matrigel and type I collagen, and then treated with compound 4 at different concentrations (1, 5 μM). A degree of infiltration was analyzed by using a microscope (see FIG. 2) and an imaging software ImageJ in 72 hours later, and an obtained area value was quantified based on a following equation (Equation 1) and shown in a graph (see FIG. 3). Relative invasion=(total area of compound treated group−spheroid area of compound treated group)/(total area of control−spheroid area of control) [Equation 1]

FAK [3] = biological target: T1, FAK; assay: FAK [pY397] ELISA in BT-20 cells; assay type: cell-based; set-up: endogenous in cells; host or cells: MDA-MB-231; settings: cell line BT-20; read-out: FAK inhibitory activity (IC50)
FAK [4] = biological target: T1, FAK; assay: FAK [pY397] ELISA in HCC70 cells; assay type: cell-based; set-up: endogenous in cells; host or cells: MDA-MB-231; settings: cell line HCC70; read-out: FAK inhibitory activity (IC50)
Method: as §1

ALK = biological target: T3, ALK (Homo sapiens, UniProt Q9UM73); assay: Eurofins kinase screening and profiling, ALK; assay type: biochemical
T3 construct: purchased Eurofins (contract screening service)

FAK [5] = biological target: T1, FAK; assay: FAK [pY397] ELISA in Hs578T cells; assay type: cell-based; set-up: endogenous in cells; host or cells: MDA-MB-231; settings: cell line Hs578T; read-out: FAK inhibitory activity (IC50)
Hs578T = assay: 3D spheroid assay, Hs578T; assay type: cell-based; settings: Homo sapiens, Hs-578T; Hs578T spheroids, 96 hours; read-out: Cancer cell growth inhibitory activity (IC50)
Method: (§3) A 3D spheroid assay was performed as a method for measuring the growth of cancer cells under three-dimensional (3D) culture conditions. Briefly, the 5×10^3 triple-negative breast cancer cells in each well of a 96-well flat plate were three-dimensionally cultured for three days by using MammoCult™ Human Medium Kit (Stemcell Technologies, #05620) and the formed cancer cell spheroids were treated with compound 4 at different concentrations (o, 0.2, 0.5, 1, 2, 5, 10, 20 PM) for 96 hours. The cancer cell growth inhibitory effect of the compound was quantified according to the manufacturer's instructions by using CellTiter-Glo® 3D Cell Viability Assay Kit (Promega, G9681).

MDA-MB-453 = assay: 3D spheroid assay, MDA-MB-453; assay type: cell-based; settings: Homo sapiens; MDA-MB-453 spheroids, 96 hours; read-out: Cancer cell growth inhibitory activity (IC50)
Method: as §3

FAK [6] = biological target: T1, FAK; assay: FAK [pY397] ELISA in BT-549 cells; assay type: cell-based; set-up: endogenous in cells; host or cells: MDA-MB-231; settings: cell line BT-549; read-out: FAK inhibitory activity (IC50)
MDA-MB-231 cells [7] = assay: Triple-negative breast cancer xenograft mouse model; assay type: in vivo; settings: MDA-MB-231 xenograft nude mice
Method: In one week after acclimatization of five-week-old male nude mice, 1×10^6 MDA-MB-231 cells were subcutaneously inoculated into the mice and observed until a tumor volume reached about 100 mm^3 after 14 days. In order to confirm a tumor growth inhibitory effect of derived candidate materials in the triple-negative breast cancer xenograft mouse model, eight mice for each group were divided into a control group and three experimental groups at different concentrations (4-20 mg/kg, 4-40 mg/kg and 4-80 mg/kg), and each compound was treated once daily. A tumor volume of the mice was measured three times a week on every other day, and the mice were sacrificed on day 29 after cell inoculation. FIG. 4 is a graph showing the tumor volume calculated based on the following formula (Equation 2) with a starting date of drug treatment as day 1. Tumor volume (mm^3)=[(tumor short diameter^2×tumor long diameter)/2] [Equation 2] […] [Equation 3]

FAK [8] = biological target: T1, FAK; assay: Eurofins kinase screening and profiling, FAK; assay type: biochemical; set-up: purchased Promega V1971
Pyk2 [9] = biological target: T4, Pyk2 (Homo sapiens, UniProt Q14289); assay: ADP-Glo Kinase Assay, Pyk2; assay type: biochemical; settings: ADP-Glo Kinase Assay Kit
T4 construct: purchased Promega V4083
Method: as §2

Met = biological target: T5, Met (Homo sapiens, UniProt P08581); assay: Eurofins kinase screening and profiling, Met; assay type: biochemical
T5 construct: purchased Eurofins (contract screening service)

FAK [10] = biological target: T1, FAK; assay: ADP-Glo Kinase Assay, FAK; assay type: biochemical; set-up: purchased Promega V1971; settings: ADP-Glo Kinase Assay Kit
Method: as §2

Pyk2 [11] = biological target: T4, Pyk2; assay: Eurofins kinase screening and profiling, Pyk2; assay type: biochemical
FAK [12] = biological target: T1, FAK; assay: FAK [pY397] ELISA in MDA-MB-453 cells; assay type: cell-based; set-up: endogenous in cells; host or cells: MDA-MB-231; settings: cell line MDA-MB-453; read-out: FAK inhibitory activity (IC50)
[13] = at 1 μM, read-out: % inhibition rate (at 1 μM)

T4 sequence (Q14289 whole entry): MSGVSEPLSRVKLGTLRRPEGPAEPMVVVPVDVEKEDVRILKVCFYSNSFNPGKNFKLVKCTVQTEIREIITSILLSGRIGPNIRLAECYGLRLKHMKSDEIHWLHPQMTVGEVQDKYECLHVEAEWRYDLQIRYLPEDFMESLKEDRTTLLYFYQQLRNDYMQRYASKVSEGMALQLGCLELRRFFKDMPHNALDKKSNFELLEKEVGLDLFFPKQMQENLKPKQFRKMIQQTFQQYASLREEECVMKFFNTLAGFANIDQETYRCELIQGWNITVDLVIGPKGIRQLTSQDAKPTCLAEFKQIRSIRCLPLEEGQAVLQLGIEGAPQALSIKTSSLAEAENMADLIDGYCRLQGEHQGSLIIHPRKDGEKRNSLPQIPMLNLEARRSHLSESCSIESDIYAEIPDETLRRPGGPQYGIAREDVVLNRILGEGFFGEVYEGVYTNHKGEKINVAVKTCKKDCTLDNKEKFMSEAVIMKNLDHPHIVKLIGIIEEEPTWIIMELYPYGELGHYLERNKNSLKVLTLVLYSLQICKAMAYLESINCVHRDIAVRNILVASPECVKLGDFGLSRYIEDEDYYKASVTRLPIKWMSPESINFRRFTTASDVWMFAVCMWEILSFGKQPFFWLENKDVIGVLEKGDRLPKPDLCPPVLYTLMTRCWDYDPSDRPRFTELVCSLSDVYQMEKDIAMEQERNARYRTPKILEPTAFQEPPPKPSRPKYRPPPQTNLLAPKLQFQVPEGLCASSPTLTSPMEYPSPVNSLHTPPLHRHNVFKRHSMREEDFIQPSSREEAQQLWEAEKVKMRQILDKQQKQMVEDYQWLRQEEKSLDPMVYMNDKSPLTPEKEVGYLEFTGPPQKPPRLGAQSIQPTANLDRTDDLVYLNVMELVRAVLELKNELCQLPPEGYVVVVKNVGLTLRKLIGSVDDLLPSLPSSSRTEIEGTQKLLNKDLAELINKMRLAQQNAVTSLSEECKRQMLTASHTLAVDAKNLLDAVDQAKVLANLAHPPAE
T1 sequence (Q05397 whole entry): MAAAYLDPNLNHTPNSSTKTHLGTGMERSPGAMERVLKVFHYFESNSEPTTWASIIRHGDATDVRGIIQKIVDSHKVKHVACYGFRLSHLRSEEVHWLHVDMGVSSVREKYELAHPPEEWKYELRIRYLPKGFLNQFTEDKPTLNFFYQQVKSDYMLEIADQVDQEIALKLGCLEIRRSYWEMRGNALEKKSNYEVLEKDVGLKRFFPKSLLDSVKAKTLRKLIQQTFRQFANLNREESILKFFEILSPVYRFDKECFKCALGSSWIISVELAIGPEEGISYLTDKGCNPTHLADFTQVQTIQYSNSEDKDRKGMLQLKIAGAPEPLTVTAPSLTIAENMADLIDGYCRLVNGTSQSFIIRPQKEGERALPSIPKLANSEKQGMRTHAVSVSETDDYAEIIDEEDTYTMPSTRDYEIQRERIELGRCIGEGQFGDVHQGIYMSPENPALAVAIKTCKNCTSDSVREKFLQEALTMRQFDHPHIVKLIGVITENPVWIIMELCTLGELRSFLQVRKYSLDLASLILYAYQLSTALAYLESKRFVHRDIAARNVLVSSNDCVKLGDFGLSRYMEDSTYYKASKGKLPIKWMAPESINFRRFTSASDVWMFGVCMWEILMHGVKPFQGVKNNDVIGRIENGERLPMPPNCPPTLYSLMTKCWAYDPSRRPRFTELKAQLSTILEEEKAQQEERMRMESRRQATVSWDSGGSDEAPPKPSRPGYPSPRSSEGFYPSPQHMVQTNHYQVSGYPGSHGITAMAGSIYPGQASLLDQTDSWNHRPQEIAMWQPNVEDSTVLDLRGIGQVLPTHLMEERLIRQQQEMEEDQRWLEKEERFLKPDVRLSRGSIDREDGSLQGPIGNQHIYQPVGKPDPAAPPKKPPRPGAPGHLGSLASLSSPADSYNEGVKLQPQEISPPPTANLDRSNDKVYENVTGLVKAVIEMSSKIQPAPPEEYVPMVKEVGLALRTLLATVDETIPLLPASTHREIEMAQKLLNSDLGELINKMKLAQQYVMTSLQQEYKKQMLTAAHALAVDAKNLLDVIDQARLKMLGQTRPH
T5 sequence (P08581 25-1390): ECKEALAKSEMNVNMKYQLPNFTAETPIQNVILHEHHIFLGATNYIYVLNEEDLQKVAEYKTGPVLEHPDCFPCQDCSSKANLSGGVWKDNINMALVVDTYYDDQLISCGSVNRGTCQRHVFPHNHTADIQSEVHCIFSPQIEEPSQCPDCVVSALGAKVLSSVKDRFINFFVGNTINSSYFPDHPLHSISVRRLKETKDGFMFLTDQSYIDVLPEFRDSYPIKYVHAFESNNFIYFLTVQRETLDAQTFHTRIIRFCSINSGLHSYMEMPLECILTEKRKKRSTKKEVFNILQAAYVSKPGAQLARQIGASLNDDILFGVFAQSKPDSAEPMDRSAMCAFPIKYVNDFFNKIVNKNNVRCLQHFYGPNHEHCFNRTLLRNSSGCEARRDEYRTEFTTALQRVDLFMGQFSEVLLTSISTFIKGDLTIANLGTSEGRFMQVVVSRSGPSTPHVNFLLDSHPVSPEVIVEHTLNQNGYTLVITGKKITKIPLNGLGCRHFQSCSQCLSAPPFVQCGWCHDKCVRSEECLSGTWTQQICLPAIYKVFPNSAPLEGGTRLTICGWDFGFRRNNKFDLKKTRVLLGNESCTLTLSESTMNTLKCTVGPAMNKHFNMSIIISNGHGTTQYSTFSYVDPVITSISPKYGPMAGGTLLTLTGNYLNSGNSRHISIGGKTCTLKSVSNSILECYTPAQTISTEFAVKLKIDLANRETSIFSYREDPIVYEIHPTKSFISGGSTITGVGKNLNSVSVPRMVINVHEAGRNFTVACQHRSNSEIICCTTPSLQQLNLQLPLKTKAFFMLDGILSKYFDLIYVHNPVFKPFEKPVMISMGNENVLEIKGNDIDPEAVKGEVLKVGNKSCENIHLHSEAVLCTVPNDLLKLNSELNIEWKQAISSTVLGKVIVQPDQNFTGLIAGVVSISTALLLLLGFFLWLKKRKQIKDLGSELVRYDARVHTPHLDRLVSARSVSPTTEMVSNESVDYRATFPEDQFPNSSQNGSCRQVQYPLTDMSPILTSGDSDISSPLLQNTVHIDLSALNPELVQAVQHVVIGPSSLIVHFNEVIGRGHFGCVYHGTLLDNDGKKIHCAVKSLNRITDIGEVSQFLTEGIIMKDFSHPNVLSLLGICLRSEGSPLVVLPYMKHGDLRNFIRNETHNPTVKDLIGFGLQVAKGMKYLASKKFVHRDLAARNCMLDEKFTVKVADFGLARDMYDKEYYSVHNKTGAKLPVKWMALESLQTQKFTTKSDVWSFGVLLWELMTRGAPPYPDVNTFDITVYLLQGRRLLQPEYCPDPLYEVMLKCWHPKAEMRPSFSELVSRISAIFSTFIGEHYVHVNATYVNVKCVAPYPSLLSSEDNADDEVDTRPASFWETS
T3 sequence (Q9UM73 19-1620): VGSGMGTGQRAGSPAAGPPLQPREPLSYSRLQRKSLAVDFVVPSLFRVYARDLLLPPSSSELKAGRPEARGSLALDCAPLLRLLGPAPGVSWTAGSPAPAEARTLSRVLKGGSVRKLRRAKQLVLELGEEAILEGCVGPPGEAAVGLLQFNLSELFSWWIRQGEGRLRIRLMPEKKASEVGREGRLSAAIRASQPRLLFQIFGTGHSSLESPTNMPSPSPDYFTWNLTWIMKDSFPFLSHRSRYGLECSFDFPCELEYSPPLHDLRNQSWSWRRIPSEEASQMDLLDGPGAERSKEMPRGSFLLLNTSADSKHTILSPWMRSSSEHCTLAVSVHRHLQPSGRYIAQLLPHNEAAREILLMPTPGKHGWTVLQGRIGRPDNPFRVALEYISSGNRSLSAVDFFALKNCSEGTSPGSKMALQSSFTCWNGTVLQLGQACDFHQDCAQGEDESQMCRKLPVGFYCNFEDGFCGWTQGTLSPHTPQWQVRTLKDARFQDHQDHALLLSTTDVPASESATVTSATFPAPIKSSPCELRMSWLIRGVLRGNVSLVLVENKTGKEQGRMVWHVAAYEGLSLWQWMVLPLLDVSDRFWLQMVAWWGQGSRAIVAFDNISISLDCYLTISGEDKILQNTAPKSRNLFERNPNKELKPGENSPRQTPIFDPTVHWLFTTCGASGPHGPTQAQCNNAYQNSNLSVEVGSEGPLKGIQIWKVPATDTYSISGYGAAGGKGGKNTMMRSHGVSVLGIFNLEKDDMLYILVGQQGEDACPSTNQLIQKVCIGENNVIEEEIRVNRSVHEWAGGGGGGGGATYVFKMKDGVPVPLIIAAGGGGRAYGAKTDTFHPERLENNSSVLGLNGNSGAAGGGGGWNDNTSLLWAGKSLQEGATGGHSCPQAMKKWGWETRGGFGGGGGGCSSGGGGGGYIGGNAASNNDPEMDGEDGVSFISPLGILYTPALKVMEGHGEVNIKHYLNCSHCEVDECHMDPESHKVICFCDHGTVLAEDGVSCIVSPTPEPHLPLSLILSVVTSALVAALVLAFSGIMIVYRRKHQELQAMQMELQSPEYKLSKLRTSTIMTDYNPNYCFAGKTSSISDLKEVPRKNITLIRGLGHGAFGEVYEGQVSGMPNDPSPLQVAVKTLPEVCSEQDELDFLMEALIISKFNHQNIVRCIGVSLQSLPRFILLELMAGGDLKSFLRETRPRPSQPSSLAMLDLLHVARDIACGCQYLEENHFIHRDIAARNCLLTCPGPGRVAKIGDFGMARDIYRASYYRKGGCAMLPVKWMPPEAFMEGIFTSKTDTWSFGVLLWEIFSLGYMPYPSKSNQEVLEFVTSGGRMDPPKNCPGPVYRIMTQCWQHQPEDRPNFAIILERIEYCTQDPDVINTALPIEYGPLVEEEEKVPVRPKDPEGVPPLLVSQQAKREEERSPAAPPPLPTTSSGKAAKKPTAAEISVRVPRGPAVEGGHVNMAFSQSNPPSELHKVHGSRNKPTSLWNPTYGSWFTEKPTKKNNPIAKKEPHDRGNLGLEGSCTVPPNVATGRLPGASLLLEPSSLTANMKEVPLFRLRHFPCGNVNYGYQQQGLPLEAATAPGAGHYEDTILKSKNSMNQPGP

- IC50 (FAK [1]): 0.034 µM
- IC50 (InsR): 5.67 µM
- IC50 (FAK [3]): 0.063 µM
- IC50 (ALK; Eurofins): 0.802 µM
- inhibition at 1 µM (ALK; [13]): 72%
- IC50 (FAK [5]): 0.02 µM
- IC50 (MDA-MB-453): 1.04 µM
- IC50 (FAK [6]): 0.049 µM
- IC50 (FAK [8]; Eurofins): 0.078 µM
- inhibition at 1 µM (FAK [8]; [13]): 97%
- IC50 (Pyk2 [9]): 0.151 µM
- IC50 (Met; Eurofins): 0.542 µM
- inhibition at 1 µM (Met; [13]): 79%
- IC50 (FAK [10]): 0.0462 µM
- IC50 (Pyk2 [11]; Pyk2, Eurofins): 0.301 µM
- inhibition at 1 µM (Pyk2 [11]; Pyk2, at 1 μM, read-out: % inhibition rate (at 1 μM)): 96%
- IC50 (FAK [12]): 0.02 µM
Structure (SMILES): CNC(=O)c1cccc(C)c1Nc1nc(Nc2ccc(N3CCN([C@H]4C5CC6CC4C[C@](O)(C6)C5)CC3)cc2OC)ncc1C(F)(F)F [Compound 4, 2-((2-((4-(4-((trans)-5-hydroxyadamantan-2-yl)piperazin-1-yl)-2-methoxyphenyl)amino)-5-(trifluoromethyl)pyrimidin-4-yl)amino)-N,3-dimethylbenzamide]
- invasion inhibitory activity (MDA-MB-231 cells [2]): excellent invasion inhibitory activity
- IC50 (FAK [4]): 0.059 µM
- IC50 (Hs578T): > 10 µM
- % TGI (MDA-MB-231 cells [7]; 20 mg/kg once daily): 72.11%
- % TGI (MDA-MB-231 cells [7]; 40 mg/kg once daily): 74.03%
- % TGI (MDA-MB-231 cells [7]; 80 mg/kg once daily): 81.28%
